In patent US20160374979A1, “Method of Treatment of Alopecia with Monoterpenoids” (CELLMID LIMITED, priority 2013, published 2016):
Entries after “also recorded” stand apart in the source; their conditions may differ.

Test system: Alkaline Phosphatase (ALP) activity in dermal papilla (DP) cells treated with FGF-5
Test: Dermal papilla alkaline phosphatase (DP-ALP) cell assay
Type: cell-based, human
Conditions: for relative ALP activity of DP cells treated FGF-5: 0.005-0.5 mg/ml, GSK3 inhibitor IX + rhFGF-5 1 μg/mL, 3 days, absorbance 490 nm
Protocol: Dermal papilla cells were prepared according to the methods described in WO2013/105417, Briefly, hairs were pulled from the scalp of a healthy subject showing normal non-alopecia hair growth using tweezers. Hair follicles with dermal papilla were thus obtained at a rate of approximately one for every 100 hairs pulled. The hair follicles with dermal papilla were separated from the hair using tweezers and transferred into a saline for inspection under a microscope. Under a microscope, each dermal papilla was isolated from a respective hair follicle using tweezers and a scalpel. Approximately 2000 isolated dermal papilla cells were then transferred to a 35 mm cell culture dish together 1-2 ml of cell culture medium, after which time the cells were cultured at 37° C. to produce a primary cell culture of dermal papilla. The cell culture medium consisted of approximately 90% DMEM medium, 10% fetal bovine serum (final concentration: 10%), FGF2 (final, concentration: 10 ng/ml), and penicillin-streptornycin solution (final concentration: 1 μg/ml) for every 2 mL of medium. Cell culture conditions were maintained for more than 14 days until dermal papilla cells covered approximately 40% of the area of the 35 mm culture dish, at which time subcultures were performed. To prepare the subcultures, the cell culture medium was removed from the 35 mm culture dish and the adherent cells were washed once with 2 ml of saline (at room temperature). 1 ml Trypsin-EDTA solution (0.1% trypsin and 0.02% EDTA) was then added to the 35 mm culture dish and left to stand for 4 minutes at 37° C. Dissociated dermal papilla cells were then recovered from the 35 mm dish, and seeded to a new 100 mm dish, and cultured in media under the same conditions as for the primary cell culture described above.
When the dermal papilla cells covered approximately 70-80% of the area of each 100 mm culture dish, the sub-confluent cells were subcultured as before. The process was repeated until sufficient cells were obtained to screen compounds of interest.
Once sufficient DP cells were obtained, the cells were harvested to provide a cell suspension. To harvest the DP cells, the cell culture medium was removed from the culture dish, and the adherent cells were washed with saline at room temperature. Trypsin-EDTA solution was then added under conditions described supra to dissociate the cells from the cell culture dish. Approximately 5×10^5 of the dissociated cells were resuspended in 500 ml of assay medium containing 445 ml of DMEM medium, 50 ml of 10% fetal calf serum and 5 ml of antibiotic.
Aliquots of the cell suspension were transferred to the wells of cell culture dishes, and a single monoterpenoid listed in Example 1 e.g., (−)-4-terpinen-4-ol, (+)-4-terpinen-4-ol. (±)-4-terpinen-4-ol, α-terpineol, nonanal, linalyl acetate or piperitone, is added to each well at a concentration of 0.005 (mg/ml) or 0.01 (mg/ml) or 0.05 (mg/ml) or 0.1 (mg/ml) or 0.5 (mg/ml). Cell suspensions were transferred to wells of a further cell culture dish to which minoxidil was then added at a concentration of 0.005 (mg/ml) or 0.01 (mg/ml) or 0.05 (mg/ml) or 0.1 (mg/ml) or 0.5 (mg/ml). A Wnt/β-catenin pathway activation agent e.g., Wnt3a or GSK-3 Inhibitor IX, as added to each of the cell cultures to produce an “activated cell culture”. Control cell cultures containing the same monoterpenoid compound or minoxodil, but lacking the Wnt/β-cinenin pathway activation agent, were processed in parallel. These activated and control cell cultures were divided further into duplicate cell culture samples either lacking FGF-5 or to which recombinant human FGF-5 (rhFGF-5; 1 μg/mL)) was added.
The cell culture samples were each cultured at 37° C. for 3 days under atmosphere containing less than 5% CO2. […]

CC1=CC(=O)C(C(C)C)CC1 (stereo not drawn) [Piperitone, 3-Methyl-6-(propan-2-yl)cyclohex-2-en-1-one]
relative ALP activity of DP cells treated FGF-5: increased relative ALP activity
relative ALP activity of DP cells treated FGF-5 (listed as piperitone): high alkaline phosphatase activity; also recorded: higher alkaline phosphatase activity in dermal papillae than a racemic mixture of terpinen-4-al or (+)-Terpinen-4-ol
FGF-5-inhibitory activity ranked from most active to least active by DP-ALP assay (rank order): Piperitone>(−)-terpinen-4-ol>(±)-Terpinen-4β-Terpineol> (+)-Terpinen-4-ol > Linalyl Acetate
